Reference: ChEMBL document CHEMBL5257035, “Nucleoside Derived Antibiotics to Fight Microbial Drug Resistance: New Utilities for an Established Class of Drugs?” (J Med Chem, 2016)
Converted amounts (≈) assume the structure as drawn.

Assays:
[1] = molecular target: Phospho-N-acetylmuramoyl-pentapeptide-transferase (Bacillus subtilis (strain 168), UniProt Q03521); experiment: Inhibition of Bacillus subtilis MraY
Pseudomonas aeruginosa [2] = experiment: Antibacterial activity against Pseudomonas aeruginosa assessed as reduction in bacterial growth; type: functional
[3] = molecular target: T1, Phospho-N-acetylmuramoyl-pentapeptide-transferase (Escherichia coli, UniProt E2QF15); experiment: Inhibition of MraY in Escherichia coli
T1 sequence (E2QF15 whole entry): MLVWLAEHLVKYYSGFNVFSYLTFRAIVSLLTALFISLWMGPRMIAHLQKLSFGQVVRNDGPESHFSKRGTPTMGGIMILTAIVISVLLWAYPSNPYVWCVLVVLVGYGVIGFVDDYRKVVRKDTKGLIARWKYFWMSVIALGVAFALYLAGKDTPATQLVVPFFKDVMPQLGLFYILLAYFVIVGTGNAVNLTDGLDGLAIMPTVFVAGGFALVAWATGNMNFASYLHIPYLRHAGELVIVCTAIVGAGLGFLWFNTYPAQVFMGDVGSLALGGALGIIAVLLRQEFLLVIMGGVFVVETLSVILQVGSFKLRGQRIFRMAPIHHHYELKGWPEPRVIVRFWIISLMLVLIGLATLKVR

Staphylococcus aureus [4] = experiment: Antibacterial activity against methicillin-resistant Staphylococcus aureus assessed as reduction in bacterial growth by broth dilution method; type: functional
Pseudomonas aeruginosa [5] = experiment: Antibacterial activity against Pseudomonas aeruginosa infected in mouse; type: functional
Pseudomonas aeruginosa [6] = experiment: Antibacterial activity against Pseudomonas aeruginosa assessed as bacterial growth inhibition; type: functional
Pseudomonas aeruginosa [7] = experiment: Antibacterial activity against Pseudomonas aeruginosa ATCC 27853 assessed as bacterial growth inhibition at 32 ug/ml measured after 16 hrs by broth microdilution method; type: functional; settings: dose 32 µg/ml
Pseudomonas aeruginosa [8] = experiment: Antimicrobial activity against Pseudomonas aeruginosa ATCC 27853 assessed as inhibition of microbial growth
[9] = molecular target: Phospho-N-acetylmuramoyl-pentapeptide-transferase (Staphylococcus aureus, UniProt P0C1R8); experiment: Inhibition of Staphylococcus aureus MraY
Pseudomonas aeruginosa [10] = experiment: Antibacterial activity against Pseudomonas aeruginosa assessed as bacterial growth reduction; type: functional
Streptococcus pyogenes = experiment: Antimicrobial activity against Streptococcus pyogenes ATCC 12344 assessed as reduction in microbial growth by broth microdilution method; type: functional
[11] = Inhibition of Bacillus stearothermophilus tyrosyl tRNA synthetase; parameters: species or system Geobacillus stearothermophilus
Escherichia coli = experiment: Antibacterial activity against Escherichia coli K12 assessed as bacterial growth inhibition by broth microdilution method; type: functional
[12] = molecular target: Phospho-N-acetylmuramoyl-pentapeptide-transferase (Bacillus subtilis (strain 168)) (UniProt Q03521); experiment: Inhibition of Bacillus subtilis MraY at 11.4 uM relative to control
Staphylococcus aureus [13] = experiment: Antimicrobial activity against methicillin-resistant Staphylococcus aureus 10925 assessed as reduction in microbial growth by broth microdilution method; type: functional
[14] = molecular target: Phospho-N-acetylmuramoyl-pentapeptide-transferase (Bacillus subtilis (strain 168)) (UniProt Q03521); experiment: Inhibition of Bacillus subtilis MraY at 2.3 uM relative to control
Proline--tRNA ligase = Proline--tRNA ligase (Escherichia coli, UniProt P16659); experiment: Binding affinity to Escherichia coli K12 Prolyl-tRNA synthetase
Sequence of Proline--tRNA ligase (P16659 whole entry): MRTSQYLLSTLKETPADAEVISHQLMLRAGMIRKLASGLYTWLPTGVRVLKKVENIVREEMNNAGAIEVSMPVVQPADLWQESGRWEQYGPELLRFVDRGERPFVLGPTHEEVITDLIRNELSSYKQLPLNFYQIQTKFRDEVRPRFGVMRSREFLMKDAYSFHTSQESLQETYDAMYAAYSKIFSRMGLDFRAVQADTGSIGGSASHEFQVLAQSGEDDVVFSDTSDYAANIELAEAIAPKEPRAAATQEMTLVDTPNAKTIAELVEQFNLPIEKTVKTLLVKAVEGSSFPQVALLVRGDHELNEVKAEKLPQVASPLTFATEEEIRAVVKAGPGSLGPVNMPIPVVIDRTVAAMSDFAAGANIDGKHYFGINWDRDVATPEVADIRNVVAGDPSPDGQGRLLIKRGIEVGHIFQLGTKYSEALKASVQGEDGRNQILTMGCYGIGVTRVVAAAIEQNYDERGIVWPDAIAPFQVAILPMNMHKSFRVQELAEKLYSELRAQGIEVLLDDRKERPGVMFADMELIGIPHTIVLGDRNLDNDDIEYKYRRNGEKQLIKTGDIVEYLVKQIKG

Sequence of Phospho-N-acetylmuramoyl-pentapeptide-transferase (Bacillus subtilis (strain 168), UniProt Q03521) (Q03521 whole entry): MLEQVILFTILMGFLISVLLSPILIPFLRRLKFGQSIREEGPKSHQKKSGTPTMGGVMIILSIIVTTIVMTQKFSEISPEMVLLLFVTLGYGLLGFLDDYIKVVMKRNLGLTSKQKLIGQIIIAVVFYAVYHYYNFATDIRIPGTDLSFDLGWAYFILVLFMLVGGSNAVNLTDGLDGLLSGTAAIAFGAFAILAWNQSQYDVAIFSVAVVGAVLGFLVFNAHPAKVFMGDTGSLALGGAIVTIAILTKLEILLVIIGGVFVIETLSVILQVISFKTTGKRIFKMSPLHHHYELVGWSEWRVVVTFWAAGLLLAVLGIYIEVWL
Sequence of Phospho-N-acetylmuramoyl-pentapeptide-transferase (Bacillus subtilis (strain 168)) (Q03521 whole entry): as above
Sequence of Phospho-N-acetylmuramoyl-pentapeptide-transferase (Staphylococcus aureus, UniProt P0C1R8) (P0C1R8 whole entry): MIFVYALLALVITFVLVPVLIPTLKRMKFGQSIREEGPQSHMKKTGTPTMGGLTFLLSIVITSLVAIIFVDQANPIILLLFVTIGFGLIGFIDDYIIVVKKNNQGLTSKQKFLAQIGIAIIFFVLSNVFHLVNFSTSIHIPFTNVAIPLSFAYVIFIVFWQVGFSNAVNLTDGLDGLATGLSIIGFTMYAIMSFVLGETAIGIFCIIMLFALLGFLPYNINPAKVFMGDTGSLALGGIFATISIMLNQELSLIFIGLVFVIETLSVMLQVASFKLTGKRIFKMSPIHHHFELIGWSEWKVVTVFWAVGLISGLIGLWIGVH

For C[C@H](N)C(=O)N[C@@H](C)[C@H](NC(=O)[C@H](C)NC(=O)N[C@@H](Cc1c[nH]c2ccccc12)C(=O)O)C(=O)N/C=C1\O[C@@H](n2ccc(=O)[nH]c2=O)[C@H](O)[C@@H]1O, the IC50 [1] was 0.042 µM.
For C[C@H](N)C(=O)N(C)[C@@H](C)[C@H](NC(=O)[C@H](C)NC(=O)N[C@@H](Cc1c[nH]c2ccccc12)C(=O)O)C(=O)N/C=C1/C[C@@H](O)[C@H](n2ccc(=O)[nH]c2=O)O1 [PACIDAMYCIN D], the MIC (Pseudomonas aeruginosa [2]) was 32 µg/mL (≈ 45 µM).
For NC[C@H]1O[C@@H](O[C@@H](Cn2cc(CCCCCCCCOc3ccc(C(=O)c4ccccc4)cc3)nn2)[C@H]2O[C@@H](n3ccc(=O)[nH]c3=O)[C@H](O)[C@@H]2O)[C@H](O)[C@@H]1O, the IC50 [3] was 8 µM and the MIC (Staphylococcus aureus [4]) was 8 µg/mL (≈ 10.5 µM).
With CSCC[C@H](NC(=O)NC(Cc1cccc(O)c1)C(=O)O)C(=O)NC(CN(C)C(=O)[C@@H](N)C(N)Cc1cccc(O)c1)C(=O)N/C=C1/C[C@@H](O)[C@H](n2ccc(=O)[nH]c2=O)O1 (stereo partly specified) the ED50 (Pseudomonas aeruginosa [5]) was 0.05 mg/kg and the MIC (Pseudomonas aeruginosa [6]) was 1.5 µg/mL (≈ 1.75 µM).
Compound CCCCCCCCCCCCCCCCC(=O)[C@H](NCCCC(=O)NCCCCNC(=N)N)[C@H](O[C@@H]1O[C@H](CN)[C@@H](O)[C@H]1O)[C@H]1O[C@@H](n2ccc(=O)[nH]c2=O)[C@H](O)[C@@H]1O has an MIC (Pseudomonas aeruginosa [7]) of 4 µg/mL (≈ 4.68 µM).
With C[C@@H](NC(=O)NC(Cc1cccc(O)c1)C(=O)O)C(=O)N[C@H](C(=O)N/C=C1/C[C@@H](O)[C@H](n2ccc(=O)[nH]c2=O)O1)[C@H](C)N(C)C(=O)[C@@H](N)C(N)c1cccc(O)c1 (stereo partly specified) the MIC (Pseudomonas aeruginosa [8]) was 32 µg/mL.
Work on COC(=O)C1=C[C@@H](O)[C@@H](O)[C@H](O[C@@H](C(N)=O)[C@H]2O[C@@H](n3ccc(=O)[nH]c3=O)[C@H](O)[C@@H]2OC)O1 yielded an IC50 [9] of 0.027 µM.
For C[C@@H](NC(=O)N[C@@H](Cc1c[nH]c2ccccc12)C(=O)O)C(=O)N[C@H](C(=O)N/C=C1/C[C@@H](O)[C@H](n2ccc(=O)[nH]c2=O)O1)[C@H](C)N(C)C(=O)[C@@H](N)CN, the MIC (Pseudomonas aeruginosa [2]) was 32 µg/mL (≈ 44 µM), the IC50 [1] was 0.022 µM and the MIC (Pseudomonas aeruginosa [10]) was 16 µg/mL (≈ 22 µM). For the same compound, the MIC (Pseudomonas aeruginosa [8]) was 4 µg/mL.
With O=c1[nH]c(=O)n([C@H]2C[C@H](O)[C@@H](CO)O2)cc1F [FLOXURIDINE] the MIC (Streptococcus pyogenes) was 0.003 µg/mL.
Work on Nc1ncnc2c1ncn2[C@@H]1O[C@H](COS(=O)(=O)NC(=O)[C@@H](N)Cc2ccc(O)cc2)[C@@H](O)[C@H]1O yielded a Ki [11] of 0.026 µM.
Compound CSCC[C@H](NC(=O)NC(Cc1cccc(O)c1)C(=O)O)C(=O)NC(CN(C)C(=O)[C@@H](N)C(N)Cc1cccc(O)c1)C(=O)N/C=C1/C[C@@H](O)[C@H](N2CCC(=O)NC2=O)O1 (stereo partly specified) has an ED50 (Pseudomonas aeruginosa [5]) greater than 0.1 mg/kg and an MIC (Pseudomonas aeruginosa [6]) of 1.5 µg/mL (≈ 1.75 µM).
Cc1cn([C@H]2C[C@H](N=[N+]=[N-])[C@@H](CO)O2)c(=O)[nH]c1=O [ZIDOVUDINE] gave an MIC (Escherichia coli) of 10 µg/mL (≈ 37.4 µM).
In the case of CCCCCCCCCCCCCCCCC(=O)NC(CCCCCCCCCCCCCCC)C(=O)[C@H](NCCCC(=O)NCCCCNC(=N)N)[C@H](O[C@@H]1O[C@H](CN)[C@@H](O)[C@H]1O)[C@H]1O[C@@H](n2ccc(=O)[nH]c2=O)[C@H](O)[C@@H]1O (stereo partly specified), the MIC (Pseudomonas aeruginosa [7]) is reported as 4 µg/mL (≈ 3.56 µM).
NC[C@H]1O[C@@H](OC[C@H]2O[C@@H](n3ccc(=O)[nH]c3=O)[C@H](OS(=O)(=O)O)C2(F)F)[C@H](O)[C@@H]1O showed an inhibition [12] of 29%.
For Nc1ccn([C@@H]2O[C@H](CO)[C@@H](O)C2(F)F)c(=O)n1 [GEMCITABINE], the MIC (Staphylococcus aureus [13]) was 0.002 µg/mL.
Compound C[C@H](N)C(=O)N(C)CCOC[C@H]1O[C@@H](n2ccc(=O)[nH]c2=O)[C@H](O)[C@@H]1O has an inhibition [14] of 97%.
Nc1nc2c(ncn2[C@@H]2O[C@H](CO)[C@@H](O)[C@H]2O)c(=O)o1 showed an MIC (Escherichia coli) of 12.5 µg/mL (≈ 44 µM).
Nc1ncnc2c1ncn2[C@@H]1O[C@H](COS(=O)(=O)NC(=O)[C@H]2CCCN2)[C@@H](O)[C@H]1O gave a Ki (Proline--tRNA ligase) of 0.49 µM.
For Nc1ncnc2c1ncn2[C@@H]1O[C@H](COP(=O)(O)OCC(N)Cc2ccc(O)cc2)[C@@H](O)[C@H]1O (stereo partly specified), the Ki [11] was 0.011 µM.
In the case of Nc1ncnc2c1ncn2[C@@H]1O[C@H](COS(=O)(=O)NC(=O)[C@@H]2CCCN2)[C@@H](O)[C@H]1O, the Ki (Proline--tRNA ligase) is reported as 0.0043 µM.
